Structures can show the parent of a compound that is named as a salt.
Assays:
[1] = test system: patients with prostatic hypertrophy accompanied with overactive bladder symptoms; conditions: cited from earlier work
[2] = test system: Male human patients with prostatic hypertrophy who still had symptoms of overactive bladder; experiment: I-PSS evaluation after four weeks, Single Group vs Combination Group (Example 1); format: in vivo; design: key to Scores of voiding symptoms (2) (4) (7) / Scores of voiding symptoms (2) (4) (7), Change / Total scores of I-PSS / Scores of storage symptoms (1) (3) (5) (6) / Scores of storage symptoms (1) (3) (5) (6), Change: summed item scores, each 0-5; higher = worse symptoms
Text: I-PSS is one of the criteria to evaluate the severity of the foregoing lower urinary tract symptoms by scoring responses to the following questions:
(2) During the last month, have you had to urinate again in less than two hours after you last urinated? (3) During the last month, have you experienced interrupted urination? (4) During the last month, have you found it difficult to postpone urination? […] (6) During the last month, have you had to strain to urinate? (7) During the last month, how many times did you typically have to get up to urinate after you went to bed until you got up in the morning?
The indices (1), (3), (5) and (6) evaluate voiding symptoms, and indices (2), (4) and (7) evaluate storage symptoms. Among these, responses to (1)-(6) are scored: 0 if the response was not at all, 1 if fewer than 1 time in 5, 2 if fewer than 1 time in 2, 3 if about 1 time in 2, 4 if more than 1 time in 2, and 5 if almost always. Additionally, the responses to (7) are respectively scored: 0, 1, 2, 3, 4, and 5 if the response was none, 1 time, 2 times, 3 times, 4 times, and 5 times or more.
Male human patients with prostatic hypertrophy who still had symptoms of overactive bladder (urgency, pollakiuria, urinary incontinence and/or nocturia, and the like.) after treatment with an α receptor antagonist for four weeks or longer were allocated for administration to two treatment groups: (1) tamsulosin hydrochloride 0.2 mg (hereinafter referred to as “Single Group”), and (2) tamsulosin hydrochloride 0.2 mg and solifenacin succinate 2.5 mg (hereinafter referred to as “Combination Group”), and then their symptoms were evaluated by I-PSS after four weeks of treatment. In Table 1 since the score of I-PSS becomes greater as the symptom worsens, greater minus change in scores indicates greater efficacy for the symptoms.

[3] = After treatment of 4 weeks, tamsulosin hydrochloride 0.2 mg alone or with solifenacin succinate 2.5 mg
[4] = Before treatment, tamsulosin hydrochloride 0.2 mg alone or with solifenacin succinate 2.5 mg
[5] = Change after 4 weeks, tamsulosin hydrochloride 0.2 mg alone or with solifenacin succinate 2.5 mg

In the case of `COc1cc2nc(N3CCN(C(=O)C4COc5ccccc5O4)CC3)nc(N)c2cc1OC` (centres unmarked) [doxazosin], the “improvement of the storage symptom score” value ([1]; in vivo) is given as 2.9 points, the “improvement of the total I-PSS” value ([1]; in vivo) is given as 7.3 points and the “improvement of the voiding symptom score” value ([1]; in vivo) is given as 4.5 points.
For `CCOc1ccccc1OCCN[C@H](C)Cc1ccc(OC)c(S(N)(=O)=O)c1` [Single, (R)-5-(2-{[2-(2-ethoxyphenoxy)ethyl]amino}propyl-2-methoxybenzene-1-sulfonamide hydrochloride], the “Scores of storage symptoms (1) (3) (5) (6)” value [2, 3] was 5.8, the “Scores of voiding symptoms (2) (4) (7)” value [2, 3] was 4.2 and the “Total scores of I-PSS” value [2, 3] was 10.8. The “Total scores of I-PSS” value ([2]; Before treatment, tamsulosin hydrochloride 0.2 mg alone (Single) or with solifenacin succinate 2.5 mg (Combination)) was 11.6, the “Scores of storage symptoms (1) (3) (5) (6)” value [2, 4] was 6.5 and the “Scores of voiding symptoms (2) (4) (7)” value [2, 4] was 4.2. The “Scores of storage symptoms (1) (3) (5) (6), Change” value [2, 5] was −0.7, the “Scores of voiding symptoms (2) (4) (7), Change” value [2, 5] was 0.0 and the “Total scores of I-PSS, Change” value [2, 5] was −0.8.
In the case of `CCCOC(C(=O)OC1CCN(C)CC1)(c1ccccc1)c1ccccc1` [Propiverine], the “acute urinary retention (AUR)” value ([1]; added to doxazosin) is listed as “no acute AUR was observed” and the “effect on the urinary flow rate” value ([1]; added to doxazosin) is listed as “did not affect”.

Reference: patent publication US20100331361A1, “PHARMACEUTICAL COMPOSITION CONTAINING ALPHA-ADRENERGIC RECEPTOR ANTAGONIST AND AN ANTI-MUSCARINIC AGENT AND METHOD OF IMPROVING LOWER URINARY TRACT SYMPTOMS ASSOCIATED WITH PROSTATIC HYPERTROPHY” (ASTELLAS PHARMA INC., priority 2007, published 2010)
